We go through 28 compounds from patent publication US12091411B2, “IRAK degraders and uses thereof” (Kymera Therapeutics, Inc., priority 2022, dated 2024).

Where two headings read alike, the source gives them in different places.

The target of this test is T1, IRAK4 (Homo sapiens, UniProt Q9NWZ3).
T1 construct: Degradation of IRAK4 in OCI-LY10 was quantitatively measured using Meso Scale Discovery technology; endogenous in cells; host or cells: OCI-LY10
T1 sequence (Q9NWZ3 1-460): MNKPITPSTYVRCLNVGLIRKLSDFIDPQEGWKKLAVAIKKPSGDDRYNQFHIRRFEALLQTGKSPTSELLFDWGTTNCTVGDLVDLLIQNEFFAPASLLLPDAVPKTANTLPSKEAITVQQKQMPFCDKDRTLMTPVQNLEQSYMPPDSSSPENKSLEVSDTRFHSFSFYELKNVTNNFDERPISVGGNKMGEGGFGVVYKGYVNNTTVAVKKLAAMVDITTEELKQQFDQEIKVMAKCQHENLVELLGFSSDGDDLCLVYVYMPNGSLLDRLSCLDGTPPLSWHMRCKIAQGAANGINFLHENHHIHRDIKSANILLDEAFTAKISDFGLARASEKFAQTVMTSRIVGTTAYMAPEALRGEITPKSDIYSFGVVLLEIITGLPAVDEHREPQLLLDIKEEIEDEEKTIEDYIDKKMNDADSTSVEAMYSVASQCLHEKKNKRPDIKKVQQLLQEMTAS
The test can be described thus: IRAK4 MSD Degradation in OCI-LY10. Particulars: OCI-LY10 cells, MSD. Format: cell-based. How it is done: Degradation of IRAK4 in OCI-LY10 was quantitatively measured using Meso Scale Discovery technology. […] Compounds were then added to the assay plates with a final top concentration of 1 to 10 μM in a 1:3 dilution series with total of 8 doses. The assay plates were then incubated for 4 to 24 hours at 37° C. under 5% CO2. […] To prepare MSD assay plates (Meso Scale Discovery Catalog number L15XA-3), the plates were coated with 2 μg/mL capture antibody (mouse Anti-IRAK4 antibody [2H9], ab119942) in PBS, at 40 μL/well. […] Cell lysates were then added to MSD assay plates and the plates were incubated at room temperature for 1 hour. The plates were then washed 3 times with 150 μL/well TBST buffer and 25 μL/well primary detection antibody (rabbit Anti-IRAK4 antibody [Y279], from Abcam. Catalog number ab32511, 1 μg/mL). The assay plates were then incubated at room temperature for 1 hour, washed 3 times with 150 μL/well TBST buffer and 25 μL/well secondary detection antibody, SULFO-TAG anti-rabbit antibody were added (anti-rabbit antibody from Meso Scale Discovery, Catalog number R32AB-1, 1 μg/mL). The assay plates were then incubated at room temperature for 1 hour, washed 3 times with 150 μL/well TBST buffer, and 150 μL/well MSD reading buffer (Meso Scale Discovery catalog number R92TC-2) was added. The plates were then analyzed by a MSD reader (Meso Scale Discovery, Model Quick Plex SQ 120). The data was then analyzed by software Prism 7.0 from GraphPad and the dose-depended IRAK4 degradation were fit using a three-parameter logistic equation to calculate DC50.
The letter codes for IRAK4 DC50 include: A (<0.01 μM); B (0.01 to <0.1 μM); C (0.1 to 0.2 μM); and D (>0.2 μM or not tested).

Where [1] appears, read: 4 hrs incubation, read-out: IRAK4 degradation in OCI-LY10 at 4 hrs: DC50.
The mark [2] stands for this setting: 24 hrs incubation, read-out: IRAK4 degradation in OCI-LY10 at 24 hrs: DC50.

The term DC50 denotes the concentration at which degradation of the target reaches its halfway point. Consider `C[C@@H]1CN(C[C@H]2CC[C@H](n3cc(NC(=O)c4cnn5ccc(N6C[C@H]7C[C@@H]6CO7)nc45)c(C(F)F)n3)CC2)CCN1CC#Cc1cccc2c1n(C)c(=O)n2C1CCC(=O)NC1=O` (some centres unmarked) [I-42], for which the DC50 runs as follows: under setting [1], 10 to 100 nM; under setting [2], more than 200 nM.
Consider `CN1C(=O)CCC(n2c(=O)n(C)c3c(C#CCN4CCN(C[C@H]5CC[C@H](n6cc(NC(=O)c7cnn8ccc(N9C[C@H]%10C[C@@H]9CO%10)nc78)c(C(F)F)n6)CC5)CC4)cccc32)C1=O` (some centres unmarked) [I-43], for which the DC50 by setting is: under setting [1], more than 200 nM; under setting [2], more than 200 nM.
In the case of `Cn1c(=O)n(C2CCC(=O)NC2=O)c2cccc(C#CCN3CCN(C[C@H]4CC[C@H](n5cc(NC(=O)c6cnn7ccc(N8C[C@H]9OC[C@@H]8O9)nc67)c(C(F)F)n5)CC4)CC3)c21` (some centres unmarked) [I-44], the DC50 runs as follows: under setting [1], 10 to 100 nM; under setting [2], more than 200 nM.
As to `Cn1c(=O)n(C2CCC(=O)NC2=O)c2cccc(C#CCN3C[C@H]4C[C@@H]3CN4C[C@H]3CC[C@H](n4cc(NC(=O)c5cnn6ccc(N7C[C@H]8C[C@@H]7CO8)nc56)c(C(F)F)n4)CC3)c21` (some centres unmarked) [I-45], the DC50 under setting [1] lay within 10 to 100 nM and the DC50 under setting [2] is more than 200 nM.
Take `O=C1CCN(c2cncc3c(C#CCO[C@H]4CCN(C[C@H]5CC[C@H](n6cc(NC(=O)c7cnn8ccc(N9C[C@H]%10C[C@@H]9CO%10)nc78)c(C(F)F)n6)CC5)C[C@H]4F)cccc23)C(=O)N1` [I-46]: the DC50 was less than 10 nM under setting [1] and more than 200 nM under setting [2].
The like results for `C[C@H]1CN(C[C@H]2CC[C@H](n3cc(NC(=O)c4cnn5ccc(N6C[C@H]7C[C@@H]6CO7)nc45)c(C(F)F)n3)CC2)CC[C@@H]1OCC#Cc1cccc2c1n(C)c(=O)n2C1CCC(=O)N(C)C1=O` (some centres unmarked) [I-47] were, in that order, more than 200 nM and more than 200 nM.
As for `C[C@@H]1CN(C[C@H]2CC[C@H](n3cc(NC(=O)c4cnn5ccc(N6C[C@@H]7C[C@H]6CO7)nc45)c(C(F)F)n3)CC2)CC[C@H]1OCC#Cc1cccc2c1n(C)c(=O)n2C1CCC(=O)NC1=O` (some centres unmarked) [I-48], the DC50 under setting [1] was in the range of 10 to 100 nM and the DC50 under setting [2] was more than 200 nM.
Regarding `C[C@@H]1CN(C[C@H]2CC[C@H](n3cc(NC(=O)c4cnn5ccc(N6C[C@H]7C[C@@H]6CO7)nc45)c(C(F)F)n3)CC2)CC[C@H]1OCC#Cc1ccc2c(N3CCC(=O)NC3=O)cncc2c1` [I-49], the DC50 is 10 to 100 nM under setting [1] and more than 200 nM under setting [2].
In the case of `Cn1c(=O)n(C2CCC(=O)NC2=O)c2cccc(C#CCN3C[C@@H]4C[C@H]3CN4C[C@H]3CC[C@H](n4cc(NC(=O)c5cnn6ccc(N7C[C@H]8C[C@@H]7CO8)nc56)c(C(F)F)n4)CC3)c21` (some centres unmarked) [I-50], the 50% degradation concentration (DC50) is 10 to 100 nM under setting [1] and more than 200 nM under setting [2].
For `COc1ccc2c(c1C#CCO[C@H]1CCN(C[C@H]3CC[C@H](n4cc(NC(=O)c5cnn6ccc(N7C[C@H]8C[C@@H]7CO8)nc56)c(C(F)F)n4)CC3)C[C@H]1F)n(C)c(=O)n2C1CCC(=O)NC1=O` (some centres unmarked) [I-51], in that order: 10 to 100 nM and more than 200 nM.
The like results for `O=C1CCN(c2cncc3c(C#CCO[C@@H]4CCN(C[C@H]5C[C@H](n6cc(NC(=O)c7cnn8ccc(N9C[C@H]%10C[C@@H]9CO%10)nc78)c(C(F)F)n6)C5)C[C@@H]4F)cccc23)C(=O)N1` [I-52] were, in that order, less than 10 nM and more than 200 nM.
For `C[C@H]1CN(C[C@H]2C[C@H](n3cc(NC(=O)c4cnn5ccc(N6C[C@H]7C[C@@H]6CO7)nc45)c(C(F)F)n3)C2)CC[C@@H]1OCC#Cc1cccc2c(N3CCC(=O)NC3=O)cncc12` [I-53], in that order: less than 10 nM and more than 200 nM.
Regarding `COc1ccc2c(c1C#CCO[C@@H]1CCN(C[C@H]3C[C@H](n4cc(NC(=O)c5cnn6ccc(N7C[C@H]8C[C@@H]7CO8)nc56)c(C(F)F)n4)C3)C[C@@H]1F)n(C)c(=O)n2C1CCC(=O)NC1=O` (some centres unmarked) [I-54], the DC50 by setting is: under setting [1], less than 10 nM; under setting [2], more than 200 nM.
The like results for `C[C@@H]1CN(C[C@H]2CC[C@H](n3cc(NC(=O)c4cnn5ccc(N6C[C@H]7C[C@@H]6CO7)nc45)c(C(F)F)n3)CC2)CC[C@H]1OCC#Cc1cccc2c(N3CCC(=O)NC3=O)cncc12` [I-55] were, in that order, 10 to 100 nM and more than 200 nM.
`C[C@H]1CN(C[C@H]2CC[C@H](n3cc(NC(=O)c4cnn5ccc(N6C[C@H]7C[C@@H]6CO7)nc45)c(C(F)F)n3)CC2)CC[C@@H]1OCC#Cc1cccc2c(N3CCC(=O)NC3=O)cncc12` [I-56]: the DC50 is, setting by setting: under setting [1], less than 10 nM; under setting [2], more than 200 nM.
For `C[C@H]1CN(C[C@H]2CC[C@H](n3cc(NC(=O)c4cnn5ccc(N6C[C@H]7C[C@@H]6CO7)nc45)c(C(F)F)n3)CC2)CC[C@@H]1OCC#Cc1ccc2c(N3CCC(=O)NC3=O)cncc2c1` [I-57], in that order: 10 to 100 nM and more than 200 nM.
Take `COc1ccc2c(c1C#CCO[C@H]1CCN(C[C@H]3CC[C@H](n4cc(NC(=O)c5cnn6ccc(N7C[C@H]8C[C@@H]7CO8)nc56)c(C(F)F)n4)CC3)C[C@@H]1C)n(C)c(=O)n2C1CCC(=O)NC1=O` (some centres unmarked) [I-58]: the DC50 is less than 10 nM under setting [1] and more than 200 nM under setting [2].
The like results for `CCn1c(=O)n(C2CCC(=O)NC2=O)c2cccc(C#CCO[C@H]3CCN(C[C@H]4CC[C@H](n5cc(NC(=O)c6cnn7ccc(N8C[C@H]9C[C@@H]8CO9)nc67)c(C(F)F)n5)CC4)C[C@@H]3C)c21` (some centres unmarked) [I-59] were, in that order, less than 10 nM and more than 200 nM.
The like results for `CCn1c(=O)n(C2CCC(=O)NC2=O)c2cccc(C#CCN3CCN(C[C@H]4CC[C@H](n5cc(NC(=O)c6cnn7ccc(N8C[C@H]9C[C@@H]8CO9)nc67)c(C(F)F)n5)CC4)CC3)c21` (some centres unmarked) [I-60] were, in that order, less than 10 nM and more than 200 nM.
Turning to `Cn1c(=O)n(C2CCC(=O)NC2=O)c2cccc(N3CCN(C4CCN(C[C@H]5CC[C@H](n6cc(NC(=O)c7cnn8ccc(N9C[C@H]%10C[C@@H]9CO%10)nc78)c(C(F)F)n6)CC5)CC4)CC3)c21` (some centres unmarked) [I-62], the DC50 is, setting by setting: under setting [1], less than 10 nM; under setting [2], more than 200 nM.
With `C[C@H]1CN(C[C@H]2CC[C@H](n3cc(NC(=O)c4cnn5ccc(N6C[C@H]7C[C@@H]6CO7)nc45)c(C(F)F)n3)CC2)CC[C@@H]1OCC#Cc1cccc2c1n(C1CC1)c(=O)n2C1CCC(=O)NC1=O` (some centres unmarked) [I-63], the DC50 under setting [1] was less than 10 nM and the DC50 under setting [2] is more than 200 nM.
For `COc1ccc2c(c1C#CCO[C@@H]1CCN(C[C@H]3CC[C@H](n4cc(NC(=O)c5cnn6ccc(N7C[C@H]8C[C@@H]7CO8)nc56)c(C(F)F)n4)CC3)C[C@H]1C)n(C)c(=O)n2C1CCC(=O)NC1=O` (some centres unmarked) [I-64], in that order: less than 10 nM and more than 200 nM.
Regarding `O=C1CCC(n2c(=O)n(C3CC3)c3c(C#CCOC4CCN(C[C@H]5CC[C@H](n6cc(NC(=O)c7cnn8ccc(N9C[C@H]%10C[C@@H]9CO%10)nc78)c(C(F)F)n6)CC5)CC4)cccc32)C(=O)N1` (some centres unmarked) [I-65], the DC50 is, setting by setting: under setting [1], less than 10 nM; under setting [2], more than 200 nM.
Consider `Cn1c(=O)n(C2CCC(=O)NC2=O)c2cccc(C3CC(CN4CCN(C[C@H]5CC[C@H](n6cc(NC(=O)c7cnn8ccc(N9C[C@H]%10C[C@@H]9CO%10)nc78)c(C(F)F)n6)CC5)CC4)C3)c21` (some centres unmarked) [I-66], for which the DC50 runs as follows: under setting [1], less than 10 nM; under setting [2], more than 200 nM.
The like results for `Cn1c(=O)n(C2CCC(=O)NC2=O)c2cccc(C3CC(OC4CCN(C[C@H]5CC[C@H](n6cc(NC(=O)c7cnn8ccc(N9C[C@H]%10C[C@@H]9CO%10)nc78)c(C(F)F)n6)CC5)CC4)C3)c21` (some centres unmarked) [I-68] were, in that order, less than 10 nM and more than 200 nM.
For `Cn1c(=O)n(C2CCC(=O)NC2=O)c2cccc(N3CCC(N4CCN(C[C@H]5CC[C@H](n6cc(NC(=O)c7cnn8ccc(N9C[C@H]%10C[C@@H]9CO%10)nc78)c(C(F)F)n6)CC5)CC4)CC3)c21` (some centres unmarked) [I-69], the DC50 was less than 10 nM under setting [1] and more than 200 nM under setting [2].
Regarding `CCn1c(=O)n(C2CCC(=O)NC2=O)c2cccc(C#CCOC3CCN(C[C@H]4CC[C@H](n5cc(NC(=O)c6cnn7ccc(N8C[C@H]9C[C@@H]8CO9)nc67)c(C(F)F)n5)CC4)CC3)c21` (some centres unmarked) [I-70], the DC50 under setting [1] is less than 10 nM and the DC50 under setting [2] was more than 200 nM.
The like results for `O=C1CCN(c2cncc3c(C4CCN(C5CCN(C[C@H]6CC[C@H](n7cc(NC(=O)c8cnn9ccc(N%10C[C@H]%11C[C@@H]%10CO%11)nc89)c(C(F)F)n7)CC6)CC5)CC4)cccc23)C(=O)N1` [I-74] were, in that order, less than 10 nM and more than 200 nM.
